In US20130202653A1, “3-ARYL-3-HYDROXY-2-AMINO-PROPIONIC ACID AMIDES, 3-HETEROARYL-3-HYDROXY-2-AMINOPROPIONIC ACID AMIDES AND RELATED COMPOUNDS HAVING ANALGESIC AND/OR IMMUNO STIMULANT ACTIVITY” (Allergan, Inc., priority 2005, published 2013):
Structures can show the parent of a compound that is named as a salt.

Assays:
spleen size = experiment: Immunostimulation: splenic size after systemic administration; format: in vivo; conditions: animals dosed at 200 mg/kg; rats
From the text: An art accepted method for measuring immuno stimulation comprises systemic administration of compounds to assay for the ability to stimulate the immune system, possibly due to nonspecific upregulation of the hemolymphoreticular system. This upregulation could result in increased numbers of lymphocytes of both T- and B-cell lineage.

[1] = test system: tactile allodynia in the rat Chung model; experiment: Chung model: reversal of tactile allodynia (von Frey hairs) after spinal nerve ligation; format: in vivo; conditions: Rattus norvegicus, 1 h, peak at 60 min post dose, read-out: Peak % Pain reversal: time post dose
From the text: An art-accepted model or assay for measuring an analgesic effect of a compound in chronic pain (in particular peripheral neuropathy) is the model known as Kim and Chung 1992, Pain […], pp 355-363 (Chung model). This model involves the surgical ligation of the L5 (and optionally the L6) spinal nerves on one side in experimental animals. Rats recovering from the surgery gain weight and display a level of general activity similar to that of normal rats. However, these rats develop abnormalities of the foot, wherein the hindpaw is moderately everted and the toes are held together. More importantly, the hindpaw on the side affected by the surgery appears to become sensitive to low-threshold mechanical stimuli and will perceive pain instead of the faint sensation of touch. This sensitivity to normally non-painful touch, called “tactile allodynia”, develops within the first week after surgery and lasts for at least two months. The allodynia response includes lifting the affected hindpaw to escape from the stimulus, licking the paw and holding it in the air for many seconds. None of these responses is normally seen in the control group.
To produce the tactile allodynia, rats are anesthetized before surgery. The surgical site is shaved and prepared either with betadine or Novacaine. Incision is made from the thoracic vertebra X111 down toward the sacrum. Muscle tissue is separated from the spinal vertebra (left side) at the L4-S2 levels. The L6 vertebra is located and the transverse process is carefully removed with a small rongeur to expose the L4-L6 spinal nerves. The L5 and L6 spinal nerves are isolated and tightly ligated with 6-0 silk thread. The same procedure is done on the right side as a control, except no ligation of the spinal nerves is performed.
After a complete hemostasis is confirmed, the wounds are sutured. A small amount of antibiotic ointment is applied to the incised area, and the rat is transferred to the recovery plastic cage under a regulated heat-temperature lamp.
On the day of the experiment, at least seven days after the surgery, typically six rats per test group are administered the test drugs by intraperitoneal (i.p.) injection or oral gavage (p.o.). For i.p. administration, the compounds are formulated in H2O and given in a volume of 1 ml/kg body weight by injecting into the intraperitoneal cavity. For p.o. administration, the compounds are formulated in H2O and given in a volume of 1 ml/kg body weight using an 18-gauge, 3 inch gavage needle that is slowly inserted through the esophagus into the stomach.
Tactile allodynia is assessed via von Frey hairs, which are a series of fine hairs with incremental differences in stiffness. Rats are placed in a plastic cage with a wire mesh bottom and allowed to acclimate for approximately 30 minutes. To establish the pre-drug baseline, the von Frey hairs are applied perpendicularly through the mesh to the mid-plantar region of the rats' hindpaw with sufficient force to cause slight buckling and held for 6-8 seconds. The applied force has been calculated to range from 0.41 to 15.1 grams. If the paw is sharply withdrawn, it is considered a positive response. A normal animal will not respond to stimuli in this range, but a surgically ligated paw will be withdrawn in response to a 1-2 gram hair. The 50% paw withdrawal threshold is determined using the method of Dixon, W. J., Ann. Rev. Pharmacol. Toxicol. 20:441-462 (1980) hereby incorporated by reference. Tactile allodynia is measured prior to and 15, 30, and 60 minutes after drug administration. The post-drug threshold is compared to the pre-drug threshold and the percent reversal of tactile sensitivity is calculated based on a normal threshold of 15.1 grams.
Table 1 below indicates the degree of pain reversal obtained in the Chung model with exemplary compounds of the invention. […]

melting point [°C] | Structure (SMILES) | increase in spleen size (spleen size) | inhibition in vivo at 0.1 mg/kg ([1]; ip, 100 μg/kg IP) [%] | inhibition in vivo at 3 mg/kg ([1]; po, 3000 μg/kg PO) [%]
– | N[C@@H](C(=O)N1CCCC1)[C@@H](O)c1ccncc1 (racemic) [Compound 22, DL-threo-2-Amino-3-hydroxy-3-(pyridin-4-yl)-1-(pyrrolidin-1-yl)propan-1-one dihydrochloride] | twentyfive | 100 | 100
159.6 | N[C@@H](C(=O)N1CCCC1)[C@@H](O)c1cccnc1 (racemic) (as salt: hydrochloride) [Compound 20, DL-threo-2-Amino-3-hydroxy-3-(pyridin-3-yl)-1-(pyrrolidin-1-yl)propan-1-one dihydrochloride] | – | – | –
